# Assay results from patent US8951397B2, “Electrophoretic analysis method” (Godo Shusei Co., Ltd., priority 2009, dated 2015).
# Biological target: T1, D protease (Paenibacillus polymyxa, UniProt P29148)
# Assay: Inhibition, activation and stabilization of D protease
# Type: biochemical
# Settings: not given
# T1 sequence (P29148 287-590): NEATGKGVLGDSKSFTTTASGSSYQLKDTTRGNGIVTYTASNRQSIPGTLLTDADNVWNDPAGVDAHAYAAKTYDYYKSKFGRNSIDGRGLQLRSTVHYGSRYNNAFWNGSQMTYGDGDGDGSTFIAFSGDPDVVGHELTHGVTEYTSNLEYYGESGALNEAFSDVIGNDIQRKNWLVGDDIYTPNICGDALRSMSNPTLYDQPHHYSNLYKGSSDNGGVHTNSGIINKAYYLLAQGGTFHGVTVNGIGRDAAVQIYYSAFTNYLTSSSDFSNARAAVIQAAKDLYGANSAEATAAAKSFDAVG
Structure (SMILES),Stabilization of D protease,Activation of D protease
[Ca+2] [Ca^2+],stabilized,
[Zn+2] [zinc ion],,activation thereof requires zinc ion

# Same assay, conditions: metal chelating agents and oxidizing agents
row,Structure (SMILES),Inhibition of D protease
1,"c1ccc(-c2ccccn2)nc1 [2,2-dipyridyl]",inhibited
2,O=C1CCC(=O)N1Br [N-bromosuccinimide],inhibited
3,c1cnc2c(c1)ccc1cccnc12 [O-phenanthroline],inhibited
4,O=C(O)CC(O)(CC(=O)O)C(=O)O [citric acid],inhibited
5,II [iodine],inhibited
6,[F-].[Na+] [sodium fluoride],inhibited

# Biological target: T1, D protease
# Assay: not given
# Settings: Patent Document 1; cited from earlier work
row,Structure (SMILES),Effect on D protease activity
1,[Al+3] [Al^3+],activity enhanced
2,[Ca+2] [Ca^2+],activity enhanced
3,[Fe+2] [Fe^2+],activity enhanced
4,[Mg+2] [Mg^2+],activity enhanced
5,[Mn+2] [Mn^2+],activity enhanced
